ChEMBL document CHEMBL1782016, “Improvement in aqueous solubility in small molecule drug discovery programs by disruption of molecular planarity and symmetry” (J Med Chem, 2011)
In brackets after ≈: the same amount, converted by molar mass. Activity calls are given as the source filed them. The calls are words filed in the database; no cut-off is given here.

Experiments:
[1] = Aqueous solubility of the compound in water
Integrin alpha-V/beta-3 [2] = biological target: T1, Integrin alpha-V/beta-3 (Homo sapiens, UniProt P05106+P06756); experiment: Antagonist activity at alphavbeta3 integrin receptor; format: functional
T1 sequence (P05106 27-788 limits assumed): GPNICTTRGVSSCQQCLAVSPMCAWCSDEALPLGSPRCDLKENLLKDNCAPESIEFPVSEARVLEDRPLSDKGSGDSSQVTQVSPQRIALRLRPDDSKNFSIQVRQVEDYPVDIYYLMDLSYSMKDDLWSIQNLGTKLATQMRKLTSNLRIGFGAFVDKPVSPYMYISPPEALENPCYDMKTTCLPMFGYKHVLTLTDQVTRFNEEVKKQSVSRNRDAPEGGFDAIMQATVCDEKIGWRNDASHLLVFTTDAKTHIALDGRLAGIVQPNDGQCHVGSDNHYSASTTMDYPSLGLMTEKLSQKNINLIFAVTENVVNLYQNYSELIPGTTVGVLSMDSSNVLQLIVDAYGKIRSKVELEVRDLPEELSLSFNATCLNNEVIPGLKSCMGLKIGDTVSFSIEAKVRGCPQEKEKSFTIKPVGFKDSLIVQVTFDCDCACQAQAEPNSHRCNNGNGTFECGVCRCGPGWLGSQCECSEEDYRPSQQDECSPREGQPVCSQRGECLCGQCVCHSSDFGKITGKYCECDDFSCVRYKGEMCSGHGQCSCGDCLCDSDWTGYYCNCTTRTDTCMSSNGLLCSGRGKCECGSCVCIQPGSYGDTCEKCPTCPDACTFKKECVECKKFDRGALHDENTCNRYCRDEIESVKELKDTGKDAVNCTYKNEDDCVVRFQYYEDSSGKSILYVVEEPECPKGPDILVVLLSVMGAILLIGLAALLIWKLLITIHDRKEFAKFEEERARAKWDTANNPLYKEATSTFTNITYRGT
T1 sequence (P06756 31-889 limits assumed): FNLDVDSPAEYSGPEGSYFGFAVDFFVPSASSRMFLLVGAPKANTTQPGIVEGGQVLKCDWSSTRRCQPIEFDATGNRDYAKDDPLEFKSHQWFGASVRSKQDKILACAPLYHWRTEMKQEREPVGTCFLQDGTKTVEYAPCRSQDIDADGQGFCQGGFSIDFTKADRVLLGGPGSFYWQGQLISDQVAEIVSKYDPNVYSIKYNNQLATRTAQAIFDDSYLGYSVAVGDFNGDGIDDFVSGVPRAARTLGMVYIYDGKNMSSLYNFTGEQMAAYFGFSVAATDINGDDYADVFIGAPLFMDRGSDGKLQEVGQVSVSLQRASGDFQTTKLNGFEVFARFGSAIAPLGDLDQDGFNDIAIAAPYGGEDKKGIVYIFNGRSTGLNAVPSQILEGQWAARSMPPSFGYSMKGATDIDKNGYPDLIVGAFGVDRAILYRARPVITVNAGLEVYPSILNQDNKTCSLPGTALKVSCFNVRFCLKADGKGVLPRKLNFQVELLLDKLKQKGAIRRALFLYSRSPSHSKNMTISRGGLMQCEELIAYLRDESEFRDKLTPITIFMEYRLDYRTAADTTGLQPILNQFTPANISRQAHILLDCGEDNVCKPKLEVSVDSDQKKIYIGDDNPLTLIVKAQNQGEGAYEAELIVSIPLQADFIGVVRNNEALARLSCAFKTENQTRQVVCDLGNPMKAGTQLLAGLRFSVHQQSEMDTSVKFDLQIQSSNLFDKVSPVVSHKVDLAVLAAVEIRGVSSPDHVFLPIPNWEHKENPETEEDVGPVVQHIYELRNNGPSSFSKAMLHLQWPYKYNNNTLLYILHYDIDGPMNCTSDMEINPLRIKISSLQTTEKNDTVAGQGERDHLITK
T1 sequence (P06756 891-1048 limits assumed): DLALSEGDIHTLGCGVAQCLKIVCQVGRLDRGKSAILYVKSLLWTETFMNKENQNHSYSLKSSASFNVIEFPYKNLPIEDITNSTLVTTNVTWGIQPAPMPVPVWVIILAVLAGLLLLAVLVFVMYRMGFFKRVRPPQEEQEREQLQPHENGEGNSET

[3] = biological target: Integrin alpha-IIb/beta-3 (Homo sapiens, UniProt P05106+P08514); experiment: Antagonist activity at alpha2bbeta3 integrin receptor; format: functional
Sequence of Integrin alpha-IIb/beta-3 (P05106 27-788 limits assumed): as the sequence (P05106 27-788 limits assumed) above
Sequence of Integrin alpha-IIb/beta-3 (P08514 32-887 limits assumed): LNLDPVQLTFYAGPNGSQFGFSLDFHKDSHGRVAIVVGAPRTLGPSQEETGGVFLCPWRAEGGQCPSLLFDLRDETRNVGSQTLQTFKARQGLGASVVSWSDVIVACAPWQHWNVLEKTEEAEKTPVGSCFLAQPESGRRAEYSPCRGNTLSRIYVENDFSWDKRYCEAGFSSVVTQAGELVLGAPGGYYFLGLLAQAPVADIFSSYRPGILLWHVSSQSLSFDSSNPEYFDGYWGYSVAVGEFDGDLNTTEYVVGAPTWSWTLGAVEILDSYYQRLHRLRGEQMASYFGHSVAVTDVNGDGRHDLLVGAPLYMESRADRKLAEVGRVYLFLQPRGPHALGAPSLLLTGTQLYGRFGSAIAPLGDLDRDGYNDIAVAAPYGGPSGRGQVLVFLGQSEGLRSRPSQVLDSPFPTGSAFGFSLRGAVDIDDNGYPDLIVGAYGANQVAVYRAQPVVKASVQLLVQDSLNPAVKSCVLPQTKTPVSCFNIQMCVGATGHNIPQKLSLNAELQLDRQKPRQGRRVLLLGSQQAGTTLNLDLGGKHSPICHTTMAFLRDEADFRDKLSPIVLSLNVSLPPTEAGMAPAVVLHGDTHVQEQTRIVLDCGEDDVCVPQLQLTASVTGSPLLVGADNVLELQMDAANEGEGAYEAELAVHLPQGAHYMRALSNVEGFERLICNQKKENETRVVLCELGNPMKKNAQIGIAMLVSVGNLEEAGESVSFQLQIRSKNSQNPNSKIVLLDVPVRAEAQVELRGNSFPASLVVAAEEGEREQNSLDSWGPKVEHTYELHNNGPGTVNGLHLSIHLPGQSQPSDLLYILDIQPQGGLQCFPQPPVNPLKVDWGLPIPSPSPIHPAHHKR
Sequence of Integrin alpha-IIb/beta-3 (P08514 891-1039 limits assumed): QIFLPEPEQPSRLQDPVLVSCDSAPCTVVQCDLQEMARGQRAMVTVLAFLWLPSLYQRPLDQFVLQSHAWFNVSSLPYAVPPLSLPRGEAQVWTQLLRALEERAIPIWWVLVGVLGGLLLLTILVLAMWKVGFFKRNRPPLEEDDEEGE

Integrin alpha-V/beta-3 [4] = biological target: T1, Integrin alpha-V/beta-3; experiment: Antagonist activity at alphavbeta3 integrin receptor human VSMC assessed as inhibition of vitronectin-induced cell adhesion; format: functional, cell-based
[5] = Antiplatelet activity in human platelet rich plasma assessed as inhibition of platelet aggregation; format: functional
[6] = biological target: T2, Peroxisome proliferator-activated receptor alpha (Homo sapiens) (UniProt Q07869); experiment: Agonist activity at PPARalpha at 1 uM; format: functional
T2 sequence (whole entry): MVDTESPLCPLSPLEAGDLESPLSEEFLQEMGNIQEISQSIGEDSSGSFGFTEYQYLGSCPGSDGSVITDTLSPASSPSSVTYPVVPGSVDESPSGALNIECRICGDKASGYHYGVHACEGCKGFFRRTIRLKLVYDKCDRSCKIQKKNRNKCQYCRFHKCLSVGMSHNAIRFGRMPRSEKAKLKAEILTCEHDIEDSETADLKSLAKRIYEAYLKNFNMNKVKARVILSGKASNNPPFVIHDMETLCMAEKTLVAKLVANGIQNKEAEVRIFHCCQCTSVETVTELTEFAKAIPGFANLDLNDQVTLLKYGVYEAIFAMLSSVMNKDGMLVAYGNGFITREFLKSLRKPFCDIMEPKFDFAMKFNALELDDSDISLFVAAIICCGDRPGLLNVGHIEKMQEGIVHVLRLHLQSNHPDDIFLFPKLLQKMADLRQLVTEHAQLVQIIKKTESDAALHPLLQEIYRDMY

[7] = Aqueous solubility of the compound; format: physicochemical; details: buffer
[8] = biological target: Macrophage metalloelastase (Homo sapiens, UniProt P39900); experiment: Inhibition of MMP12
Sequence of Macrophage metalloelastase (P39900 whole entry): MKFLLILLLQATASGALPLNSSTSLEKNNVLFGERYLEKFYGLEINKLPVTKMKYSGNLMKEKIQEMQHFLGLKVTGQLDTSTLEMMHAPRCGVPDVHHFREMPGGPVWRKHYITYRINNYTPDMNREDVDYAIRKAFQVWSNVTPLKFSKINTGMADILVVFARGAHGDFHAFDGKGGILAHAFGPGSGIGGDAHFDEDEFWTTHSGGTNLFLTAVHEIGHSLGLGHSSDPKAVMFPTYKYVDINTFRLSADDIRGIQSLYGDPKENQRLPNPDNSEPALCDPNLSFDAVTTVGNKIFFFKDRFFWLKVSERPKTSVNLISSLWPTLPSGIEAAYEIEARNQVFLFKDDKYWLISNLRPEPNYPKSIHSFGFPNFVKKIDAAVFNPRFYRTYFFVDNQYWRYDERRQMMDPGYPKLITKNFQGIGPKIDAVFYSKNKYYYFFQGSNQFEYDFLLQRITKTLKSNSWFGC

[9] = Inhibition of Escherichia coli H560 DNA gyrase mediated DNA cleavage
[10] = Aqueous solubility of the compound at pH 7.4; format: physicochemical; details: buffer
[11] = Oral bioavailability in rat; details: in vivo

| Compound | IC50 (Integrin alpha-V/beta-3 [2]) [nM] | IC50 [3] [nM] | IC50 (Integrin alpha-V/beta-3 [4]) [nM] | IC50 [5] [nM] | also measured |
| --- | --- | --- | --- | --- | --- |
| O=C(NC[C@H](NS(=O)(=O)c1ccccc1)C(=O)O)c1ccc(N2CCC(NC3=NCCCN3)CC2)cc1 | 1.3 | 3 | 190 | 290 | solubility ([1]; water): < 100 µg/mL |
| CCCCOc1ccc(-c2c(F)ccc(C(=O)O)c2F)cc1CNC(=O)c1ccc(C(F)(F)F)cc1F |  |  |  |  | Activity [6]: inactive |
| COc1cc(C(=O)NC[C@H](NS(=O)(=O)c2ccccc2)C(=O)O)ccc1N1CCC(NC2=NCCCN2)CC1 |  | 0.44 | 110 | 130 |  |
| O=C(O)Cc1ccc(CNC(=O)c2cc(-c3ccc(-c4ccccc4)cc3)cs2)cc1 |  |  |  |  | solubility [7]: < 1 µg/mL; IC50 [8]: 70 nM |
| O=C(O)Cc1ccc(CNC(=O)c2cc(-c3ccc(-c4ccccc4O)cc3)cs2)cc1 |  |  |  |  | solubility [7]: 134 µg/mL (≈ 302 µM); IC50 [8]: 90 nM |
| O=c1cc(-c2ccccc2)oc2ccc3ccccc3c12 [BETA-NAPHTHOFLAVONE] |  |  |  |  | solubility [7]: < 0.15 µg/mL |
| O=C(NC[C@H](NS(=O)(=O)c1cccs1)C(=O)O)c1ccc(N2CCC[C@H](NC3=NCCCN3)C2)cc1 | 0.25 | 0.4 | 52 | 99 | solubility ([1]; water): 3300 µg/mL (≈ 6170 µM) |
| O=C(NC[C@H](NS(=O)(=O)c1ccccc1)C(=O)O)c1ccc(N2CCC[C@H](NC3=NCCCN3)C2)cc1F | 0.23 | 0.78 | 16 | 290 | solubility ([1]; water): 2800 µg/mL (≈ 5120 µM) |
| O=C(NC[C@H](NS(=O)(=O)c1ccc(O)cc1)C(=O)O)c1ccc(N2CCC(NC3=NCCCN3)CC2)c(O)c1 | 0.3 | 0.94 | 390 | 510 |  |
| O=C(O)c1ccc(S(=O)(=O)N[C@@H](CNC(=O)c2ccc(N3CCC(NC4=NCCCN4)CC3)c(F)c2)C(=O)O)cc1 | 0.77 | 1.2 | 660 | 930 |  |
| O=C(NC[C@H](NS(=O)(=O)c1ccccc1)C(=O)O)c1ccc(N2CCC[C@H](N=C3NCCCN3)C2)cc1 | 0.48 | 0.56 | 31 | 83 | solubility ([1]; buffer): 3500 µg/mL (≈ 6620 µM) |
| O=C(NC[C@H](NS(=O)(=O)c1ccccc1)C(=O)O)c1ccc(N2CCC(NC3=NCCCN3)CC2)c(F)c1 | 0.36 | 0.21 | 48 | 37 | solubility ([1]; buffer): 600 µg/mL (≈ 1100 µM) |
| CCCCOc1ccc(-c2ccc(C(=O)O)cc2C)cc1CNC(=O)c1ccc(C(F)(F)F)cc1F |  |  |  |  | Activity [6]: inactive |
| O=C(O)c1cc(C2CC2)c2cc(N3CCNCC3)c(F)cn2c1=O |  |  |  |  | IC50 [9]: 0.15 µg/mL (≈ 0.453 µM) |
| CC(c1ccncc1)n1[nH]c(=O)c2[nH]c3cc(Cl)ccc3c(=O)c2c1=O.CS(=O)(=O)O (stereo not drawn) |  |  |  |  | solubility [10]: > 290 µg/mL |
| Cc1c(N2CC[C@H](N)C2)c(F)cn2c(=O)c(C(=O)O)cc(C3CC3)c12 [ABT-719] |  |  |  |  | IC50 [9]: 0.03 µg/mL (≈ 0.0869 µM) |
| O=C(NC[C@H](NS(=O)(=O)c1ccc(O)cc1)C(=O)O)c1ccc(N2CCC(NC3=NCCCN3)CC2)c(F)c1 | 0.14 | 0.18 | 53 | 230 | solubility ([1]; water): 100 µg/mL (≈ 178 µM) |
| O=C(NC[C@H](NS(=O)(=O)c1ccccc1)C(=O)O)c1ccc(N2CCC(NC3=NCCCN3)CC2)c(Cl)c1 | 0.17 | 0.023 | 72 | 90 |  |
| Clc1ccc(-c2ccccc2Cl)cc1 |  |  |  |  | solubility ([1]; water): 637 µg/mL (≈ 2860 µM) |
| CCCCOc1ccc(-c2ccc(C(=O)O)cc2F)cc1CNC(=O)c1ccc(C(F)(F)F)cc1F |  |  |  |  | Activity [6]: inactive |
| CCCCOc1ccc(-c2ccc(C(=O)O)cc2)cc1CNC(=O)c1ccc(C(F)(F)F)cc1F |  |  |  |  | Activity [6]: inactive |
| CS(=O)(=O)O.O=c1c2ccc(Cl)cc2[nH]c2c(O)nn(Cc3ccncc3)c(=O)c12 |  |  |  |  | bioavailability [11]: 5% |
| O=C(NC[C@H](NS(=O)(=O)c1ccccc1)C(=O)O)c1ccc(N2CCC(NC3=NCCCN3)CC2)c(O)c1 | 0.44 | 0.98 | 530 | 170 |  |
